The test system of test [1] is Dictyostelium discoideum. The test is described as follows: Compound was evaluated for nucleoside diphosphate kinase (NDP-kinase) activity relative to Adenosine triphosphate (100). Also noted: concentration or dose not given beside the values.
For test [2], the system named is Dictyostelium discoideum. The test is described as follows: Compound was evaluated for nucleoside diphosphate kinase (NDP-kinase) activity.

As for `Nc1ncnc2c1nc(Cl)n2[C@@H]1O[C@H](COP(=O)(O)OP(=O)(O)OP(=O)(O)O)[C@@H](O)[C@H]1O`, the Relative activity with Dictyostelium discoideum [1] was 140%.
On to `Nc1ncnc2c1ccn2[C@@H]1O[C@H](COP(=O)(O)OP(=O)(O)OP(=O)(O)O)[C@@H](O)[C@H]1O`, for which the Relative activity in the test with Dictyostelium discoideum [1] came to 155%.
Consider `O=P(O)(O)OP(=O)(O)OP(=O)(O)OC[C@H]1O[C@@H](n2cnc3c(Cl)ncnc32)[C@H](O)[C@@H]1O`, for which, in the test on Dictyostelium discoideum [1], the Relative activity stood at 110%.
The same measure, in the same setting: with `O=P(O)(O)OP(=O)(O)OP(=O)(O)OC[C@H]1O[C@@H](n2cnc3cncnc32)[C@H](O)[C@@H]1O` the figure was 130%; with `O=P(O)(O)OP(=O)(O)OP(=O)(O)OC[C@H]1O[C@@H](n2cnc3cc(Cl)c(Cl)cc32)[C@H](O)[C@@H]1O`, 145%.
Consider `Nc1ncnc2c1ncn2[C@@H]1O[C@H](COP(=O)(O)OP(=O)(O)OP(=O)(O)O)[C@@H](O)[C@H]1O`, for which the Relative activity with Dictyostelium discoideum [2] was determined as 100%.

Source of the values: ChEMBL document CHEMBL1149985, “Novel synthesis of nucleoside 5-polyphosphates” (Bioorg Med Chem Lett, 1996).
